A short description of series [1]: Analgesic activity in Writhing test (W.t.) after p.o. administration. Format: in vivo. Conditions: for ED50: po, read-out: W.t. ED50. (In general: Writhing tests count abdominal constrictions after an irritant is injected.)
Excerpt: (§1) Antidepressant activity of some of compounds of formulae Ia
(§2) and Ib shown against tetrabenazine ptosis (T.P.) and
(§3) analgesic activity in Writhing test (W.t.) after p.o. administration
TI = therapeutica1 index = LD50
A short description of series [2]: Antidepressant activity shown against tetrabenazine ptosis (T.P.) after p.o. administration. Conditions: for ED50: po, read-out: T.P. ED50; for TI (therapeutic index), T.P.: tetrabenazine ptosis, p.o. administration, TI = therapeutic index = LD50 (so in the source). Format: in vivo.
Excerpt: as §1, §2, §3
TI = therapeutica1 index = LD50

The values that follow come from patent publication US5064826A, “Novel triazolo-pyrimidine derivatives” (priority 1989, dated 1991).

On to `CC(C)(C)Nc1nc2[nH]c3c(c(=O)n2n1)SCCC3` [Example 26, 2-t-Butylamino-5,7,8,9-tetrahydrothiopyrano[3,2-d]-1,2,4-triazolo[1,5-a]pyrimidine-5(10H)-one], for which the “TI (therapeutic index), W.t.” value in series [1] (Writhing test, p.o. administration, TI = therapeutic index = LD50 (so in the source)) turned out to be 5.6. In addition, in series [1], the ED50 (in general, the dose that gives a 50% effect, or the effect in half of the subjects) amounted to 355 mg/kg.
With `CN(C)c1nc2[nH]c3c(c(=O)n2n1)SCCC3` [Example 19, 2-Dimethylamino-5,7,8,9-tetrahydrothiopyrano[3,2-d]-1,2,4-triazolo[1,5-a]pyrimidine-5(10H)-one], in series [2], the median effective dose (ED50) was determined as 2.7 mg/kg and the “TI (therapeutic index), T.P.” value was 748.
Take `CC(=O)Nc1ccc(O)cc1` [paracetamol, p(acetylamino)-phenol, reference compound]: the ED50 in series [1] is 421 mg/kg.
For the compound `O=c1c2c([nH]c3nc(NC4CCCCC4)nn13)CCCS2` [Example 25, 2-Cyclohexylamino-5,7,8,9-tetrahydrothiopyrano[3,2-d]-1,2,4-triazolo[1,5-a]pyrimidine-5(10H)-one], in series [2], the 50% effective dose (ED50) was found to be 22.5 mg/kg and the “TI (therapeutic index), T.P.” value came to 87.
In the case of `O=c1c2c([nH]c3nc(N4CCOCC4)nn13)CCCS2` [Example 21, 2-Morpholino-5,7,8,9-tetrahydrothiopyrano[3,2-d]-1,2,4-triazolo[1,5-a]pyrimidine-5(10H)-one], in series [2], the ED50 was 5.2 mg/kg and the “TI (therapeutic index), T.P.” value is given as 385.
For `CN(C)CCC=C1c2ccccc2CCc2ccccc21` [amitriptyline, 5(3-dimethylaminopropylidene)dibenz/a,d/1,4-cycloheptadiene, reference compound], in that order: 12 mg/kg and 19.
